The source of these data is BindingDB's records for doi:10.1021/jm00381a002 (1985).

pIC50: −log10 of the molar value. Where a SMILES comes first, the peptide text is derived from it.

The assay concerns the target gastrin/CCK-B receptor (Rattus norvegicus). As to the kind of experiment: Inhibitory activity against binding of [125I](Nle11)-HG-13 to gastrin receptor in vitro.
As usually defined, the pIC50 is −log10 of the IC50, conventionally taken in molar units. A low value points to a large IC50. As to `CSCC[C@H](NC(=O)[C@H](Cc1c[nH]c2ccccc12)NC(=O)OC(C)(C)C)C(=O)N[C@@H](CC(=O)O)C(N)=O` [3-{2-[2-tert-Butoxycarbonylamino-3-(1H-indol-3-yl)-propionylamino]-4-methylsulfanyl-butyrylamino}-succinamic acid] (HELM PEPTIDE1{[CC(C)(C)OC(=O)[*:2]].W.M.D.[am]}$$$$V2.0), the pIC50 was 4.52.
Take `O=C(N[C@@H](Cc1c[nH]c2ccccc12)C(=O)O)c1ccc(Cl)cc1` [(S)-2-(4-Chloro-benzoylamino)-3-(1H-indol-3-yl)-propionic acid]: the pIC50 was 3.60.
`CC(C)C[C@H](NC(=O)[C@H](Cc1c[nH]c2ccccc12)NC(=O)OC(C)(C)C)C(=O)N[C@@H](C)C(N)=O` [[1-[1-(1-Carbamoyl-ethylcarbamoyl)-3-methyl-butylcarbamoyl]-2-(1H-indol-3-yl)-ethyl]-carbamic acid tert-butyl ester] (HELM PEPTIDE1{[CC(C)(C)OC(=O)[*:2]].W.L.A.[am]}$$$$V2.0): the pIC50 was 3.82.
Take `CC[C@H](C)[C@H](NC(=O)[C@H](Cc1c[nH]c2ccccc12)NC(=O)OC(C)(C)C)C(=O)N[C@@H](CC(=O)O)C(N)=O` (HELM PEPTIDE1{[CC(C)(C)OC(=O)[*:2]].W.I.D.[am]}$$$$V2.0): the negative-log IC50 (pIC50) was 4.30.
The compound `CC(C)(C)OC(=O)N[C@@H](Cc1c[nH]c2ccccc12)C(=O)N1CCC[C@H]1C(=O)N[C@@H](CC(=O)O)C(N)=O` [3-({1-[2-tert-Butoxycarbonylamino-3-(1H-indol-3-yl)-propionyl]-pyrrolidine-2-carbonyl}-amino)-succinamic acid] (HELM PEPTIDE1{[CC(C)(C)OC(=O)[*:2]].W.P.D.[am]}$$$$V2.0) had a negative logarithm of the IC50 (pIC50) of 4.00.
For `CCCC[C@H](NC(=O)[C@H](Cc1c[nH]c2ccccc12)NC(=O)OC(C)(C)C)C(=O)N[C@@H](CC(=O)O)C(N)=O` [3-{2-[2-tert-Butoxycarbonylamino-3-(1H-indol-3-yl)-propionylamino]-hexanoylamino}-succinamic acid] (HELM PEPTIDE1{[CC(C)(C)OC(=O)[*:2]].W.[Nle].D.[am]}$$$$V2.0) the value was 4.52; for `CSCC[C@H](NC(=O)[C@H](Cc1c[nH]c2ccccc12)NC(=O)CNC(=O)OC(C)(C)C)C(=O)N[C@@H](CC(=O)O)C(N)=O` [3-{2-[2-(2-tert-Butoxycarbonylamino-acetylamino)-3-(1H-indol-3-yl)-propionylamino]-4-methylsulfanyl-butyrylamino}-succinamic acid] (HELM PEPTIDE1{[CC(C)(C)OC(=O)[*:2]].G.W.M.D.[am]}$$$$V2.0), 4.60.
Compound `CC(C)C[C@H](NC(=O)[C@H](Cc1c[nH]c2ccccc12)NC(=O)OCc1ccccc1)C(=O)N[C@@H](CC(=O)O)C(N)=O` [3-{2-[2-Benzyloxycarbonylamino-3-(1H-indol-3-yl)-propionylamino]-4-methyl-pentanoylamino}-succinamic acid] (HELM PEPTIDE1{[O=C(OCc1ccccc1)[*:2]].W.L.D.[am]}$$$$V2.0) showed a pIC50 of 4.40.
Compound `CC(C)(C)OC(=O)N[C@@H](Cc1c[nH]c2ccccc12)C(=O)N[C@@H](Cc1ccccc1)C(=O)N[C@@H](CC(=O)O)C(N)=O` [3-{2-[2-tert-Butoxycarbonylamino-3-(1H-indol-3-yl)-propionylamino]-3-phenyl-propionylamino}-succinamic acid] (HELM PEPTIDE1{[CC(C)(C)OC(=O)[*:2]].W.F.D.[am]}$$$$V2.0) showed a pIC50 of 4.52.
Take `CC(C)CC(NC(=O)[C@H](Cc1c[nH]c2ccccc12)NC(=O)OC(C)(C)C)C(=O)N[C@@H](CC(=O)O)C(N)=O` (some centres not stated) [3-{2-[2-tert-Butoxycarbonylamino-3-(1H-indol-3-yl)-propionylamino]-4-methyl-pentanoylamino}-succinamic acid]: the pIC50 is 4.30.
The compound `CC(C)C[C@H](NC(=O)[C@H](Cc1c[nH]c2ccccc12)NC(=O)OC(C)(C)C)C(=O)N[C@@H](CCC(=O)O)C(N)=O` [4-{2-[2-tert-Butoxycarbonylamino-3-(1H-indol-3-yl)-propionylamino]-4-methyl-pentanoylamino}-4-carbamoyl-butyric acid] (HELM PEPTIDE1{[CC(C)(C)OC(=O)[*:2]].W.L.E.[am]}$$$$V2.0) gave a negative logarithm of the IC50 (pIC50) of 4.70.
For `CC(C)C[C@H](NC(=O)[C@H](Cc1c[nH]c2ccccc12)NC(=O)OC(C)(C)C)C(=O)N[C@@H](CC(=O)O)C(=O)N(C)C` [3-{2-[2-tert-Butoxycarbonylamino-3-(1H-indol-3-yl)-propionylamino]-4-methyl-pentanoylamino}-N,N-dimethyl-succinamic acid] (HELM PEPTIDE1{[CC(C)(C)OC(=O)[*:2]].W.L.D.[CN(C)[*:1]]}$$$$V2.0) the value was 4.00.
